These results are taken from patent US11866430B2, “Naphthyridinone compounds useful as T cell activators” (priority 2018, dated 2024).

In one assay the test system is naïve human CD8 T cells. In words: cells. As to conditions: Homo sapiens, T-cell, read-out: HuCD8 INFG Normalized EC50, anti-CD3 plus anti-CD28 as baseline; 3 μM Example 40 co-stimulation as 100% activation. The method, then:
Frozen naïve human CD8 T cells were thawed in ATM-V media, incubated for 2 h in 37° C., and counted. The 384-well tissue culture plate was coated overnight at 4° C. with 20 μl anti-human CD3 at 0.05 μg/mL in PBS, which was removed off the plate before 40,000 cells per 40 microliters CD8 T cells with 0.1 μg/mL soluble anti-human CD28 were added to each well. The compounds were transferred using an Echo liquid handler to the cell plate immediately after the cells were plated. After 20 h incubation at 37° C. incubator, 3 microliters per well supernatants transferred into a new 384-well white assay plate for cytokine measurement.
Interferon-γ (IFN-γ) was quantitated using the AlphaLISA kit (Cat #AL217) as described by the manufacturer manual (Perkin Elmer). The counts from each well were converted to IFN-γ concentration […].

Assay [1] has as its target T1, human DGKζ (Homo sapiens (Human), UniProt Q13574). Description: DGKζ LIPGLO assay (extruded liposome substrate). The class given is biochemical. As to conditions: extruded liposome substrate; read-out: DGKζ LIPGLO IC50. Summed up:
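Sf9-derived DGKζ was premixed 10 min with PC/DAG/PS liposomes (100 nm extruded) in MOPS pH 7.5 buffer containing NaCl, MgCl2, CaCl2 and DTT.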

Assay [2] concerns the target T2, human DGKα (Homo sapiens (Human), UniProt P23743). In words: DGKα LIPGLO assay (extruded liposome substrate). In kind it is biochemical. The gist of the method:
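Human full-length DGKα, His-tagged and produced in Sf9 cells, assayed at 20 nM (4× stock) on extruded liposomes of PS, 0.25 mM DAG and 2.75 mM PC, preincubated 10 min. Reaction started with 300 μM ATP (stock) and ran 1 h in MOPS pH 7.5/MgCl2/CaCl2/DTT buffer.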

Assay [3] concerns pre-activated CD4 T cells and Raji cells. Description: Raji CD4 T Cell IL2 Assay. In kind it is cell-based.
Assay [4] has as its target T1, human DGKζ. In words: DGKζ assay (detergent/lipid micelle substrate). The class given is biochemical. As to conditions: detergent/lipid micelle substrate; read-out: DGKζ IC50. Summed up:
(§1)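 Enzymes were baculovirus/Sf9 full-length human DGKα or DGKζ with His tag. The substrate was PS/DAG in octyl glucoside micelles, in MOPS pH 7.5 buffer with NaCl, MgCl2, CaCl2 and DTT.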

Assay [5] relates to Jurkat AP1-luciferase Reporter. In words: DGK AP1-Reporter Assay. In kind it is cell-based. On the procedure:
The Jurkat AP1-luciferase Reporter was generated using the Cignal Lenti AP1 Reporter (luc) Kit from SABiosciences (CLS-011L).
The sample size was 30 nl per well; and one destination plate per source plate. The cell suspensions were prepared by transferring 40 mL cells (2×20 mL) to clean 50 mL conical tubes. The cells were concentrated by centrifugation (1200 rpm; 5 mins; ambient temperature). […] The cell plates were incubated for 20 minutes at 37° C., and 5% CO2.
During the incubation, anti-CD3 antibody (αCD3) solutions were prepared by mixing 3 μl αCD3 (1.3 mg/mL) with 10 mL medium [final conc=0.4 μg/mL]. Next, 1.5 μl αCD3 (1.3 mg/mL) was mixed with 0.5 mL medium [final conc=4 μg/mL]. After 20 minutes, 10 μl medium was added to all wells in column 1, wells A to M, and 10 μl αCD3 (4 μg/mL) per well was added in column 1, rows N to P for reference. Then using a multi-channel pipette, 10 μl αCD3 (0.4 μg/mL) per well was added. The αCD3 stimulated +/− compound-treated cells were incubated at 37° C., 5% CO2 for 6 hours.
During this incubation period. Steady-Glo (Promega E2520) reagent was slowly thawed on to ambient temperature. Next, 20 μl Steady-Glo reagent per well was added using a multi-drop Combi-dispenser. Bubbles were removed by centrifugation (2000 rpm, ambient temperature, 10 sees). The cells were incubated at room temperature for 5 minutes. Samples were characterized by measuring the Relative Light Units (RLU) with an using Envision Plate Reader Instrument on a luminescence protocol.

Assay [6] addresses T2, human DGKα. Description: biochemical. As to conditions: detergent/lipid micelle substrate; read-out: DGKα IC50. The gist of the method: as §1
Where [7] appears, read: read-out: API-Luciferase Reporter IC50, Table 3.
Setting [8] is: Homo sapiens, Jurkat, read-out: API-Luciferase Reporter IC50, Table 3.
The mark [9] stands for this setting: Homo sapiens, Jurkat, read-out: DGKAP1 Lucif Reporter IC50, Table 4.

Structures are written as SMILES. Values joined by “and” are separate entries in the source; they are usually repeats but may differ in a detail not shown here. Equal entries are not always repeated. Where two headings read alike, the source gives them in different places.

T1 sequence (Q13574 other isoform, or with tags, fused parts or gaps): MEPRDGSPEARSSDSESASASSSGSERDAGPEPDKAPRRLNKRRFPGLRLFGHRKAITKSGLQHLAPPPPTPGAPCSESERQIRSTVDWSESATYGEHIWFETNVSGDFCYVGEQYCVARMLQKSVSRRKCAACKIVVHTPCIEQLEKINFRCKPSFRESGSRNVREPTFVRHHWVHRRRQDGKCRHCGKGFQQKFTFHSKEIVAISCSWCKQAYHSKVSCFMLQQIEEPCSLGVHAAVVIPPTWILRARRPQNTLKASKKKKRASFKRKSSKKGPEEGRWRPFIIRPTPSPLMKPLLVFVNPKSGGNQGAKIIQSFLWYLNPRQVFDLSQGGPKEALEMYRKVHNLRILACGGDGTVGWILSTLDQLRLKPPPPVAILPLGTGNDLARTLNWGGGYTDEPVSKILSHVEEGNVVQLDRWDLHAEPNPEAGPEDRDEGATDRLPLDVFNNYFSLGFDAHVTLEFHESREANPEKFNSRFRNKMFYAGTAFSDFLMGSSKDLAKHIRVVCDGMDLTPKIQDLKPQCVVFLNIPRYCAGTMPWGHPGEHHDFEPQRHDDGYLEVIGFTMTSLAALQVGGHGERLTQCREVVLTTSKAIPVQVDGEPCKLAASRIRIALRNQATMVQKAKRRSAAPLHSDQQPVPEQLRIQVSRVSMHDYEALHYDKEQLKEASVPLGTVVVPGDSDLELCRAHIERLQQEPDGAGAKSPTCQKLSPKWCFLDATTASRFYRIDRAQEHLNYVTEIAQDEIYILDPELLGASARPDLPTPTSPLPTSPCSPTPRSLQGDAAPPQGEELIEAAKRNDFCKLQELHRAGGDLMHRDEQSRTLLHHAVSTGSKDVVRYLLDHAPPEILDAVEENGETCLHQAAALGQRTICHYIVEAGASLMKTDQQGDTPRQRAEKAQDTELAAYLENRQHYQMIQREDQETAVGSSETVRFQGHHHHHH
T2 sequence (P23743 other isoform, or with tags, fused parts or gaps): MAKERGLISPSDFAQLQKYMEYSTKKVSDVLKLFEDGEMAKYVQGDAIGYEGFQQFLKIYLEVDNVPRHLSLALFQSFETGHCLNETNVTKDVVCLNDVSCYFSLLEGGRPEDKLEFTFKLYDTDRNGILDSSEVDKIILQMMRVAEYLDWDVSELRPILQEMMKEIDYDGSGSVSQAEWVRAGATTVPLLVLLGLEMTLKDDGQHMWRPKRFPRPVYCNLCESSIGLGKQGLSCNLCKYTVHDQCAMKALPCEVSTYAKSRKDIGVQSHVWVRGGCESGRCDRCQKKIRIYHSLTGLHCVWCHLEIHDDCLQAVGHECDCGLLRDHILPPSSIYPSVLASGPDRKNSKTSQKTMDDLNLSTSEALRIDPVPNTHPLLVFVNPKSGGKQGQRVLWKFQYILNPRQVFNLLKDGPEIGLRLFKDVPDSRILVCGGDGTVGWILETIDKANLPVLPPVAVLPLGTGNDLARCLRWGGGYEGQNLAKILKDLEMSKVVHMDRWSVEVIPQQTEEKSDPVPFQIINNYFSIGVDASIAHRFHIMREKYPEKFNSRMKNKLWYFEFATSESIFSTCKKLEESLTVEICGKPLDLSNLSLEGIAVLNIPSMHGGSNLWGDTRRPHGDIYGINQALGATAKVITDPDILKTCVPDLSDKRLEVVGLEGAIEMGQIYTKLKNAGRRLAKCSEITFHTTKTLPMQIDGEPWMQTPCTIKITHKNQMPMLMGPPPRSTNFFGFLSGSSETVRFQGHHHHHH

In the case of `CCC(c1ccc(F)cc1)N1CCN(c2c(C#N)c(=O)n(C)c3ccc(C)nc23)CC1` (racemic) [Example 398, 4-{4-[1-(4-fluorophenyl)propyl]piperazin-1-yl}-1,6-dimethyl-2-oxo-1,2-dihydro-1,5-naphthyridine-3-carbonitrile], the EC50 with naïve human CD8 T cells was determined as 1.21 µM. In addition, the IC50 on human DGKζ [1] was > 240 µM and 49 µM.

For the molecule `Cn1c(=O)c(C#N)c(N2CCN(C(c3ccccc3)c3ccc(Cl)cc3)CC2)c2nc(Br)ccc21` (racemic) [Example 429, 6-bromo-4-{4-[(4-chlorophenyl)(phenyl)methyl]piperazin-1-yl}-1-methyl-2-oxo-1,2-dihydro-1,5-naphthyridine-3-carbonitrile], the IC50 was determined as 1.8 µM on human DGKα [2] and 9.4 µM at human DGKζ [1]. Further, the EC50 with naïve human CD8 T cells is 0.08 µM.

For the molecule `Cn1c(=O)c(C#N)c(N2CCN(C(c3ccccc3)c3ccc(F)cc3)CC2)c2nc(Br)ccc21` (racemic) [Example 430, 6-bromo-4-{4-[(4-fluorophenyl)(phenyl)methyl]piperazin-1-yl}-1-methyl-2-oxo-1,2-dihydro-1,5-naphthyridine-3-carbonitrile], the IC50 on human DGKα [2] was determined as 1.9 µM; on human DGKζ [1], 3 µM. Further, in the assay on naïve human CD8 T cells, the EC50 is 0.3 µM.

`COc1ccccc1C(c1ccc(F)cc1)N1CCN(c2c([N+](=O)[O-])c(=O)n(C)c3ccc(C#N)nc23)CC1` (single isomer, unassigned) [Example 19, 8-{4-[(4-fluorophenyl)(2-methoxyphenyl)methyl]piperazin-1-yl}-5-methyl-7-nitro-6-oxo-5,6-dihydro-1,5-naphthyridine-2-carbonitrile]: the IC50 is above 100 µM in assay [3] (Homo sapiens, Raji); 19 µM at human DGKζ [4]; 0.83 µM in assay [5] (setting [7]); 13 µM on human DGKα [6].

Take `COc1ccccc1C(c1ccc(F)cc1)N1CCN(c2c([N+](=O)[O-])c(=O)n(C)c3ccc(C#N)nc23)CC1` (single isomer, unassigned) [Example 20, 8-{4-[(4-fluorophenyl)(2-methoxyphenyl)methyl]piperazin-1-yl}-5-methyl-7-nitro-6-oxo-5,6-dihydro-1,5-naphthyridine-2-carbonitrile]: the IC50 in assay [3] is above 100 µM; on human DGKζ [4] it was 4.3 µM; in assay [5] (setting [7]), 0.4 µM; on human DGKα [6] it was 3.3 µM.

Take `Cn1c(=O)c([N+](=O)[O-])c(N2CCN(C(c3ccccc3)c3ccccc3O)CC2)c2nc(Br)ccc21` (single isomer, unassigned) [Example 78, 6-bromo-4-(4-((2-hydroxyphenyl)(phenyl)methyl)piperazin-1-yl)-1-methyl-3-nitro-1,5-naphthyridin-2(1H)-one]: the IC50 in assay [3] was above 100 µM; on human DGKζ [4] it was above 240 µM; in assay [5] (setting [8]), 0.14 µM; at human DGKα [6] it was 12 µM.

As for `C#CCn1c(=O)c(C#N)c(N2CCN(Cc3c(C)cc(C)cc3O)CC2)c2nc(Br)ccc21` [Example 69, 6-bromo-4-(4-(2-hydroxy-4,6-dimethylbenzyl)piperazin-1-yl)-2-oxo-1-(prop-2-yn-1-yl)-1,2-dihydro-1,5-naphthyridine-3-carbonitrile], the IC50 was above 100 µM in assay [3] (Homo sapiens, Raji); 13 µM at human DGKζ [4]; 0.51 µM in assay [5] (setting [8]); 1.3 µM on human DGKα [6].

For `C#CCn1c(=O)c([N+](=O)[O-])c(N2CCN(C3CCc4ccc(OC)cc43)CC2)c2nc(C#N)ccc21` (stereo not drawn) [Example 138, 8-(4-(6-methoxy-2,3-dihydro-1H-inden-1-yl)piperazin-1-yl)-7-nitro-6-oxo-5-(prop-2-yn-1-yl)-5,6-dihydro-1,5-naphthyridine-2-carbonitrile], the IC50 was above 100 µM in assay [3] (Homo sapiens, Raji); 0.73 µM at human DGKζ [4]; 0.66 µM in assay [5] (setting [8]); 32 µM at human DGKα [6].

Consider `COCCn1c(=O)c([N+](=O)[O-])c(N2CCN(C3CCc4ccc(OC)cc43)CC2)c2nc(C#N)ccc21` (stereo not drawn) [Example 146, 8-(4-(6-methoxy-2,3-dihydro-1H-inden-1-yl)piperazin-1-yl)-5-(2-methoxyethyl)-7-nitro-6-oxo-5,6-dihydro-1,5-naphthyridine-2-carbonitrile], for which the IC50 in assay [3] (Homo sapiens, Raji) is above 100 µM; at human DGKζ [4] it was 36 µM; in assay [5] (setting [8]), 1.87 µM; on human DGKα [6], above 240 µM.

Consider `Cn1c(=O)c(C#N)c(N2CCN(Cc3ccc(O)c(F)c3)CC2)c2nc(C#N)ccc21` [Example 363, 8-{4-[(3-fluoro-4-hydroxyphenyl)methyl]piperazin-1-yl}-5-methyl-6-oxo-5,6-dihydro-1,5-naphthyridine-2,7-dicarbonitrile], for which the IC50 in assay [3] (Homo sapiens, Raji) was above 100 µM; at human DGKζ [4], above 240 µM; in assay [5] (setting [8]), 10 µM; at human DGKα [6] it was 0.15 µM.

In the case of `Cc1ccc(F)c(CN2CCN(c3c(C#N)c(=O)n(C)c4ccc(Cl)nc34)CC2)c1` [Example 364, 6-chloro-4-{4-[(2-fluoro-5-methylphenyl)methyl]piperazin-1-yl}-1-methyl-2-oxo-1,2-dihydro-1,5-naphthyridine-3-carbonitrile], the IC50 in assay [3] (Homo sapiens, Raji) was above 100 µM; at human DGKζ [4], above 240 µM; in assay [5] (setting [8]), 1.57 µM; in assay [5] (setting [9]), 10 µM; on human DGKα [6], 1.1 µM.

In the case of `COc1cccc(Cl)c1CN1CCN(c2c(C#N)c(=O)n(C)c3ccc(Cl)nc23)CC1` [Example 365, 6-chloro-4-{4-[(2-chloro-6-methoxyphenyl)methyl]piperazin-1-yl}-1-methyl-2-oxo-1,2-dihydro-1,5-naphthyridine-3-carbonitrile], the IC50 in assay [3] (Homo sapiens, Raji) was above 100 µM; at human DGKζ [4] it was 190 µM; in assay [5] (setting [8]), 2.22 µM; in assay [5] (setting [9]) it was 10 µM; on human DGKα [6], 3.5 µM.

With `Cn1c(=O)c(C#N)c(N2CCN(Cc3cccc4cc[nH]c34)CC2)c2nc(Br)ccc21` [Example 373, 6-bromo-4-{4-[(1H-indol-7-yl)methyl]piperazin-1-yl}-1-methyl-2-oxo-1,2-dihydro-1,5-naphthyridine-3-carbonitrile], the IC50 in assay [3] (Homo sapiens, Raji) is above 100 µM; on human DGKζ [4], 100 µM; in assay [5] (setting [8]), 0.26 µM; on human DGKα [6] it was 2.5 µM.

With `Cn1c(=O)c(C#N)c(N2CCN(Cc3c(O)cccc3Cl)CC2)c2nc(Br)ccc21` [Example 390, 6-bromo-4-{4-[(2-chloro-6-hydroxyphenyl)methyl]piperazin-1-yl}-1-methyl-2-oxo-1,2-dihydro-1,5-naphthyridine-3-carbonitrile], the IC50 at human DGKζ [4] is above 240 µM; in assay [5] (setting [8]), 0.8 µM; at human DGKα [6] it was 0.87 µM.

`Cn1c(=O)c(C#N)c(N2CCN(Cc3c(F)cccc3F)CC2)c2nc(Cl)ccc21` [Example 422, 6-chloro-4-{4-[(2,6-difluorophenyl)methyl]piperazin-1-yl}-1-methyl-2-oxo-1,2-dihydro-1,5-naphthyridine-3-carbonitrile]: the concentration for half-maximal inhibition (IC50) was above 100 µM in assay [3] (Homo sapiens, Raji); above 240 µM at human DGKζ [4]; 3.49 µM in assay [5] (setting [8]); 1.4 µM at human DGKα [6].
